From US20130252983A1, “ACTIVATING PHOSPHORYLATION SITE ON GLUTAMINASE C” (CORNELL UNIVERSITY, priority 2010, published 2013)
Entries after “also recorded” stand apart in the source; their conditions may differ.

How the values were obtained:
[1] = target: T1, GA activity of NIH 3T3 cells stably expressing Dbl or Cdc42(F28L) (Mus musculus, UniProt D3Z7P3); assay: GA activity in mitochondrial fractions of treated transformed NIH 3T3 cells; type: cell-based
T1 construct: endogenous in cells; host or cells: NIH 3T3 cells stably expressing Dbl or Cdc42(F28L); mitochondrial fraction
T1 sequence (D3Z7P3 55-603 isoform D3Z7P3-2): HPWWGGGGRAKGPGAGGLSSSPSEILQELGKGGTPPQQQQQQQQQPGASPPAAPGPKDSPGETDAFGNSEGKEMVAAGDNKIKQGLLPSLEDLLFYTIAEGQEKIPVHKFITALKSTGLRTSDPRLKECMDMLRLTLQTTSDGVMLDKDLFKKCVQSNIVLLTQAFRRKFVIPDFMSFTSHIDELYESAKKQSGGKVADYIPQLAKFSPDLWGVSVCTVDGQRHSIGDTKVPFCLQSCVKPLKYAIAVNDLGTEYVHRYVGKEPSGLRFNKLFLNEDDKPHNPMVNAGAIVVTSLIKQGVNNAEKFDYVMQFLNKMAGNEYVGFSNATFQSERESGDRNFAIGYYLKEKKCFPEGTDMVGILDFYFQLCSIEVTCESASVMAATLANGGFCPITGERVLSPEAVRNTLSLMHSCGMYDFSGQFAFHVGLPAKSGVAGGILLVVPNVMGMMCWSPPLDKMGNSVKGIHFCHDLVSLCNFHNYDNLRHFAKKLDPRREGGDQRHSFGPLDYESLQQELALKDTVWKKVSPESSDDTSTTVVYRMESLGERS
Description: (§1) 100%=620 moles of glutamine hydrolyzed per minute per mole of enzyme. Data represent the average of 3 experiments (±s.d.). […] Following precipitation of the beads and re-suspension, the samples were analyzed by Western blotting with anti-V5 antibody. […] Data represent the average of 3 experiments (±s.d.). […] Data represent the average of 3 experiments (±s.d.). […] Data represent the average of 3 experiments (±s.d.). FIG. 3E NIH 3T3 cells transiently expressing Dbl were assayed for focus formation in the presence of 10 μM 968 alone or together with 7 mM dimethyl α-ketoglutarate. […] 100%=680 nM glutamine hydrolyzed per minute per 10^5 cells. Data are the average of 3 experiments (±s.d.). […] 100%=750 nM glutamine hydrolyzed per minute per 10^5 cells. Data represent the average of 3 experiments (±s.d.).
(§2) FIGS. 4A-E illustrate the role of glutaminase C activity in cellular transformation. […] Data represent the average of 3 experiments (±s.d.). […] Data represent the average of 3 experiments (±s.d.). […] 100% represents the activity measured in untreated Dbl-transformed cells. The data represent the average of 2 experiments. […] 100% represents the activity measured in untreated SKBR3 cells. The data represent the average of 2 experiments. […] Data represent the average of 3 experiments (±s.d.).
FIGS. 11A-E illustrate the effects of different treatments on GA activity. […] The addition of Pi stimulated the GA activity in control 3T3 cells, Dbl-expressing cells, and Cdc42(F28L)-expressing cells by ˜6-fold, 2-fold, and 3-fold, respectively. 100% represents the Pi-stimulated activity measured for Dbl-transformed cells that were not treated with 968. Data is the average of 3 experiments (±s.d.). […] The addition of Pi stimulated the GA activity of HMECs, MDA-MB231 cells, and SKBR3 cells by ˜5-fold, 2-fold, and 1.4-fold, respectively. 100% represents the Pi-stimulated activity for SKBR3 cells that were not treated with 968. Data are the average of 3 experiments (±s.d.). […] Mitochondrial fractions were prepared from equal numbers of cells and assayed for GA activity in the presence or absence of 133 mM Pi. The data are plotted as the percentage of GA activity measured for untreated SKBR3 cells and represent the average of 2 experiments. […] 100% represents the Pi-stimulated activity measured for untreated Dbl-transformed cells. The data represent the average of 2 experiments. […] 100% represents the Pi-stimulated activity for untreated SKBR3 cells. The data represent the average of 2 experiments.
Dbl expressing NIH 3T3 cells were treated for 48 hours in the presence or absence of 968 (10 μM), Bay 11-7082 (2 μM) or Rapamycin (100 nM). Mitochondria were then isolated from the treated cells and assayed for glutaminase activity in the absence or presence of phosphate.
Mitochondrial preparations were obtained using the mitochondria isolation kit from QIAGEN (Cat #37612). A suspension containing 2×10^7 cells was transferred into a 50 ml conical tube and centrifuged at 500×g for 10 minutes at 4° C. The pellets were resuspended in 2 ml of ice-cold lysis buffer (supplied by QIAGEN) and incubated for 10 minutes at 4° C. using an end-over-end shaker. The lysates were centrifuged at 1000×g for 10 minutes at 4° C., and the pellets were resuspended in a buffer supplied by the manufacturer and disrupted completely by using a blunt-ended, 23-gauge needle and a syringe, followed by centrifugation at 6000×g for 20 minutes at 4° C. […]

[2] = tested on: GA activity of SKBR3 cells; assay: GA activity in mitochondrial fractions of treated SKBR3 cells; type: cell-based, human; settings: 2 μM
Description: as §1, §2
FIGS. 11A-E illustrate the effects of different treatments on GA activity. […] The addition of Pi stimulated the GA activity in control 3T3 cells, Dbl-expressing cells, and Cdc42(F28L)-expressing cells by ˜6-fold, 2-fold, and 3-fold, respectively. 100% represents the Pi-stimulated activity measured for Dbl-transformed cells that were not treated with 968. Data is the average of 3 experiments (±s.d.). […] The addition of Pi stimulated the GA activity of HMECs, MDA-MB231 cells, and SKBR3 cells by ˜5-fold, 2-fold, and 1.4-fold, respectively. […] The data are plotted as the percentage of GA activity measured for untreated SKBR3 cells and represent the average of 2 experiments. […] 100% represents the Pi-stimulated activity measured for untreated Dbl-transformed cells. […]

GAC phosphorylation = target: T2, GAC phosphorylation (Mus musculus, UniProt D3Z7P3); assay: 2-D gel analysis of V5-GAC phosphorylation states from treated Dbl cells; type: cell-based; settings: 48 hours
T2 construct: expressed in transfected cells; host or cells: NIH 3T3 cells (stably expressing Dbl, or parental), transient transfection
T2 sequence (D3Z7P3 55-603 isoform D3Z7P3-2 limits assumed): T1 sequence (D3Z7P3 55-603 isoform D3Z7P3-2)
Description: NIH 3T3 cells stably expressing the Dbl oncogene, were transiently transfected with DNA encoding a VS-tagged GAC, and then one sample was treated with 968 (10 μM) for 48 hours. The cells were then harvested and the ectopically expressed GAC was isolated by immunoprecipitation via the V5 tag. The samples were then subjected to 2-D gel analysis to separate the V5-GAC by charge and size, and the V5-tagged GAC was visualized by Western blotting using an anti-V5 antibody.
GAC runs distinctly on a 2D gel depending whether it is expressed in normal (untransformed) NIH 3T3 cells or in NIH 3T3 cells which are transformed by the Dbl oncogene. Specifically, there is one major species of GAC present in NIH 3T3 cells whereas in Dbl cells, two additional species of GAC appear which migrate with a more negative charge but at the same molecular mass as the original species (FIG. 21, first and second panels). […] Additionally, it has been shown that small molecules of the 968 family which are able to inhibit GAC in vivo do so by blocking the ability of GAC to become phosphorylated. Thus, it was of great interest to identify the amino acid(s) on GAC whose phosphorylation is causal in the activation of this enzyme.

[3] = target: T3, mouse GAC (E. coli-expressed mouse ortholog of human GAC) (Mus musculus, UniProt D3Z7P3); assay: Recombinant glutaminase activity assay; type: biochemical
T3 construct: A plasmid encoding mouse GAC (residues 128-603) was cloned into the pET28a vector; His (N, cleaved yes); made in house; host or cells: E. coli (pET28a)
T3 sequence (D3Z7P3 128-603 isoform D3Z7P3-2): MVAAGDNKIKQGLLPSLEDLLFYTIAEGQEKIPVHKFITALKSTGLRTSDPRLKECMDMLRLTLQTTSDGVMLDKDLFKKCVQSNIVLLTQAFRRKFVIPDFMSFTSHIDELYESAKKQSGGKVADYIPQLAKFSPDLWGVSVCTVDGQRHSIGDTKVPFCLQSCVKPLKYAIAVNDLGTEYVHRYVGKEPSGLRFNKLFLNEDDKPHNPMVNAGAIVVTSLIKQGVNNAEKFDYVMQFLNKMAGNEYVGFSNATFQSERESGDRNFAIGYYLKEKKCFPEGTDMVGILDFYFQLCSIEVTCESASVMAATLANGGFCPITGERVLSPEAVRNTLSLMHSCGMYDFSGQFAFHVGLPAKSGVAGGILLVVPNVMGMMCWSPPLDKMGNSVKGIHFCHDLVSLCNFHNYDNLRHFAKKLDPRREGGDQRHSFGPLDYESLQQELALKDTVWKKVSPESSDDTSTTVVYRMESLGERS
Description: as §1
The activity of the E. coli-expressed recombinant mouse ortholog of human GAC were assayed in the presence of 0 ([…]), 10 (∇) or 20 (▪) μM 968 and inorganic phosphate in the form of dipotassium hydrogen phosphate. […] The data are plotted as GA activity as function of varying concentrations of glutamine or inorganic phosphate. The data are the average of 3 experiments and are plotted as mean±SEM.
Glutaminase activity assays were performed on recombinant enzyme as previously described (Kenny et al., “Bacterial Expression, Purification and Characterization of Rat Kidney-Type Mitochondrial Glutaminase,” Protein Expr. Purif. 31:140-148 (2003), which is hereby incorporated by reference in its entirety). A plasmid encoding mouse GAC (residues 128-603) was cloned into the pET28a vector and the protein was expressed with an N-terminal histidine (His)-tag. The tag was cleaved using thrombin and the protein was further purified by anion-exchange and gel-filtration chromatography. […] The reaction mixture was incubated at room temperature for 45 minutes and the absorbance at 340 nm was recorded for each sample against a water blank. The absorbance of the sample with just the cocktail mixture was subtracted from each reading to calculate the activity of the enzyme.

[4] = tested on: NIH 3T3 cells expressing oncogenic Dbl; assay: Dbl-induced cellular transformation (focus formation, growth in low serum, soft agar); type: cell-based, mouse; settings: focus formation / growth in low serum
Description: FIGS. 1A-E illustrate that the small molecule 968 inhibits cellular transformation. […] Cells were fixed and stained with crystal violet for counting of foci. Right: 968 was serially diluted (10, 5, 2.5, and 1.25 μM) and evaluated for its ability to inhibit focus formation. […] After 6 days, the cells were counted. 100% represents the number of Dbl-transformed cells counted in the absence of 968 (27.5×10^4 cells). Data represent the average of 3 experiments (±s.d.). […] At the indicated times, the cells were counted. Data represent the average of 3 experiments (±s.d.).
FIGS. 2A-G illustrate effects of 968 on the transforming activity of constitutively active Rho GTPases and human breast cancer cells. […] Cells were scored after 14 days and plotted as the percentage of the total number of colonies greater than 50 μm in diameter. Data represent the average of 3 experiments (±s.d.). […] Data represent the average of 3 experiments (±s.d.). […] Data represent the average of 3 experiments (±s.d.). […] After 24 hours at 37° C., the migratory cells were fixed, stained with GIEMSA, and counted. Data represent the average of 3 experiments (±s.d.). […] Data represent the average of 3 experiments (±s.d.). […] Data represent the average of 3 experiments (±s.d.). […] Data represent the average of 3 experiments (±s.d.).
FIGS. 5A-C illustrate comparative abilities of 968 and other benzo[a]phenanthridinones to inhibit the transforming activity of oncogenic Dbl and H-Ras. […] Histograms show the relative levels of Dbl-induced focus formation for the different treatments, compared to Dbl-induced focus formation measured in the presence of DMSO (i.e. solvent control). Data represent the average of 3 experiments (mean±s.d.). […] Histograms show the relative levels of Ras(G12V)-induced focus formation measured for the different treatments, compared to Ras(G12V)-induced focus formation measured in the presence of DMSO (solvent control). Data represent the average of 3 experiments (mean±s.d.). FIG. 5C NIH 3T3 cells stably expressing H-Ras(G12V) that were cultured in DMEM supplemented with 1% calf serum, with the indicated amounts of 968. After 6 days, cells are trypsinized and counted. 100% represents the number of cells counted in the absence of 968, i.e. 26×10^4 cells. Data represent the average of 3 experiments (mean±s.d.).

SMILES | mitochondrial glutaminase activity ([1]; Dbl expressing NIH 3T3 cells, 48 hours, Bay 11-7082 (2 μM), Rapamycin (100 nM)) | direct stimulation of the enzyme by phosphate (Pi-stimulated GA activity) ([1]; Dbl-transformed cells, 2 μM) | basal (phosphate-independent) GA activity ([1]; Dbl-transformed cells, 2 μM, 2 days) | basal (phosphate-independent) GA activity [2] | direct stimulation of the enzyme by phosphate (Pi-stimulated GA activity) [2] | most negative migrating major species of GAC on 2D gel (GAC phosphorylation) | inhibition of enzymatic activity of purified mouse GAC [3] | blocking of Dbl-induced transformation [4]
CC(C)(C)c1ccc(S(=O)(=O)/C=C/C#N)cc1 [BAY 11-7082, E3((4-t-butylphenyl)-sulfonyl)-2-propenenitrile] | significant loss of glutaminase activity | little or no effect | significantly reduces their basal GA activity | significantly reduces their basal GA activity | little or no effect | loss of the most negative migrating major species of GAC | – | –
CC1(C)CC(=O)C2=C(C1)c1c(ccc3ccccc13)NC2c1cccc(Br)c1 (centres unmarked) [Compound 335] | – | – | – | – | – | – | little ability to inhibit enzyme activity | little or no inhibition; also recorded: less effective at blocking Dbl-transformation
